≈ marks a conversion by molar mass, not a printed value. Where two headings read alike, the source gives them in different places.
Legend:
[1] = Compound 1 pH-solubility at 22° C.; assay type: physicochemical; conditions: for solubility: aqueous buffer, thermodynamic from solid
Description: The solubility of Compound 1 at various pH's was investigated.

[2] = test system: EPO and VEGF; experiment: Phase 1a multiple ascending dose study: circulating EPO and VEGF levels in serum; assay type: in vivo, human; conditions: serum samples
[3] = Phase 1a multiple ascending dose study: Compound 1 concentration in colon tissue (colonic mucosal biopsy); assay type: in vivo, human
Description: Colonic mucosal biopsy samples were acquired.

[4] = Phase 1a single ascending dose study (oral solution): plasma pharmacokinetics; assay type: in vivo; conditions: male, human; for AUC(0-t): read-out: AUClast, mean (SD); for Cmax: read-out: Cmax, mean (SD)
Protocol: Compound 1 was administered as the HCl-salt (prepared analogously to Example 2.1).
Placebo dosing solutions were identical to active, except without Compound 1. […] Since HPβCD concentration remained constant, subjects in Cohort 5 received twice the amount of HPβCD relative to subjects in Cohorts 1 to 4. Dosing, including consumption of rinse water, was completed within 3 minutes, administered in the morning after an overnight fast, and maintained for up to 4 hours after dosing.
The secondary objective was to characterize the single-dose pharmacokinetic (PK) parameters of Compound 1 after ascending doses.
Blood samples were collected at baseline, day 1 (0.5, 1, 2, 3, 4, 6, 8, 12, 16, 24 hours post dose), day 2 (30, 36 and 48 hours post dose) and day 8 follow-up visit. Analysis of plasma samples was performed using a validated Liquid Chromatography—Mass Spectrometry and Liquid Chromatography—Tandem Mass Spectrometry (LC-MS/MS) method.

[5] = test system: EPO or VEGF; experiment: Phase 1a multiple dose tablet study (Example 26): EPO and VEGF change from baseline to Day 7; parameters: species or system human; conditions: in vivo
[6] = pKa of Compound 1; assay type: physicochemical; conditions: two basic groups
Description: The pKa value expresses the strength of acids and base, i.e. the tendency for an acid to lose a proton or a base to accept a proton (Bronsted J. N. Rec. trav. Chim. (47), 718, 1923) and the protonation and deprotonation of the basic groups in the compound has a marked effect upon the solubility of Compound 1 in aqueous media. Consequently, the solubility of Compound 1 is highly dependent upon pH.

[7] = test system: hypoxia inducible factor (HIF)-inducible gene expression; experiment: Phase 1a multiple ascending dose study: HIF-inducible gene expression in colonic mucosal biopsy samples; assay type: in vivo, human
Protocol: Colonic mucosal biopsy samples were also assessed for hypoxia inducible factor (HIF)-inducible gene expression. For Tier 1 association tests, two significant gene were detected (HMOX1, CA9).

[8] = Phase 1a single ascending dose study (oral solution): safety and tolerability; assay type: in vivo, human; conditions: all doses evaluated (20-240 mg) in 50 mL or 100 mL vehicle
Description: The primary objective of the study was to assess the safety and tolerability of ascending dose levels of Compound 1 after single oral dose administration. The safety endpoints included AE incidence, clinically significant changes in vital signs, ECG parameters, clinical laboratory tests and physical examination.
All subjects underwent a complete physical examination and their medical history and demographic information collected. The body systems evaluated included general appearance, skin, lymphatic, head and neck, EENT (eyes, ears, nose, and throat), chest and lungs, cardiovascular, abdomen, extremities, musculoskeletal and neuromuscular. Vital signs were measured. Blood pressure, pulse, respiratory rate and oral temperature; were taken. Blood and urine samples were collected at screening, pre-baseline, baseline, during the treatment period, and Day 8 follow-up visit; the following clinical laboratory evaluations were conducted. […]

[9] = test system: HIF-1α; experiment: Phase 1a multiple ascending dose study: proportion of HIF-1α positive cells in colonic biopsies (immunohistochemistry, manual assessment); assay type: in vivo, human; conditions: for Proportion of HIF-1α Positive Cells, CFB (change from baseline), Mean / Proportion of HIF-1α Positive Cells, CFB (change from baseline), Median: baseline to Day 8
Protocol: Manual assessment of the proportion of HIF-1α positive cells was conducted in 10 regions of interest, selected in whole tissue sections. (Note, the study was amended to add this immunohistochemistry analysis; thus data is only available for cohorts 4 and 5 (120 mg and 60 mg), cohorts 1-3 lacked this type of biopsy).
Table 50 presents the proportions of HIF-1α positive cells evaluated at baseline and Day 8, and the change from baseline to Day 8 of the proportion of HIF-1α positive cells. The mean proportion of HIF-1α positive cells ranged from 1% to 80% across all experimental groups.

[10] = 20 mg, Cohort 1, 20 mg single oral dose (0.4 mg/mL, 50 mL)
[11] = 60 mg, Cohort 2, 60 mg single oral dose (1.2 mg/mL, 50 mL)
[12] = 120 mg, Cohort 3, 120 mg single oral dose (2.4 mg/mL, 50 mL)
[13] = 240 mg, Cohort 4, 240 mg single oral dose (4.8 mg/mL, 50 mL)
[14] = 240 mg, Cohort 5, 240 mg single oral dose (2.4 mg/mL, 100 mL)
[15] = Pooled (60 mg and 120 mg), Baseline
[16] = Pooled (60 mg and 120 mg), Day 8

SMILES: CC(C)(C)OC(=O)N1CCN(Cc2ccn(Cc3ccc(Cl)cc3)c(=O)c2O)CC1 [Compound 1, tert-butyl 4-((1-(4-chlorobenzyl)-3-hydroxy-2-oxo-1,2-dihydropyridin-4-yl)methyl)piperazine-1-carboxylate]
- solubility ([1]; TRIS buffer, pH 8 (TRIS 25 mM, l = 0.1), pH 8.0, 22° C.): 0.69 µg/mL (≈ 1.59 µM)
- Solubility (in words) ([1]; above pH 4): practically insoluble
- solubility ([1]; 0.1M NaOH, pH 12.6, 22° C.): 890 µg/mL (≈ 2050 µM)
- Solubility (in words) ([1]; at pH 1): soluble
- Solubility (in words) ([1]; at pH 6.8): totally insoluble
- solubility ([1]; citrate buffer, pH 3 (Citrate 25 mM, l = 0.1), pH 2.9, 22° C.): 570 µg/mL (≈ 1310 µM)
- solubility ([1]; citrate buffer, pH 4 (Citrate 25 mM, l = 0.1), pH 3.9, 22° C.): 94 µg/mL (≈ 217 µM)
- solubility ([1]; citrate buffer, pH 5 (Citrate 25 mM, l = 0.1), pH 5.0, 22° C.): 9.8 µg/mL (≈ 22.6 µM)
- solubility ([1]; glycine buffer, pH 10 (Glycine 25 mM, l = 0.1), pH 9.9, 22° C.): 9.9 µg/mL (≈ 22.8 µM)
- solubility ([1]; phosphate buffer, pH 6.5 (Phosphate 25 mM, l = 0.1), pH 6.5, 22° C.): 1 µg/mL (≈ 2.3 µM)
- Effects on circulating EPO and VEGF levels [2]: no Compound 1-related effects
- Compound 1 Concentration in Colon Tissue, Median (Range) ([3]; Cohort 2, 120 mg): 10.75 (0-1150) ng/g
- Compound 1 Concentration in Colon Tissue, Median (Range) ([3]; Cohort 3, 240 mg): 23.50 (0-301) ng/g
- Compound 1 Concentration in Colon Tissue, Median (Range) ([3]; Cohort 4, 120 mg): 127.47 (0-3330) ng/g
- Compound 1 Concentration in Colon Tissue, Median (Range) ([3]; Cohort 5, 60 mg): 102.30 (0-1360) ng/g
- Compound 1 colon tissue levels (in words) ([3]; colonic mucosal biopsy samples): increase in a dose-dependent manner
- Tmax [4, 10]: 30 min
- AUC(0-t) [4, 10]: 10.7 ng·h/mL
- Cmax [4, 10]: 2.06 ng/mL
- Tmax [4, 11]: 30 min
- AUC(0-t) [4, 11]: 14.2 ng·h/mL
- Cmax [4, 11]: 7.71 ng/mL
- Tmax [4, 12]: 30 min
- AUC(0-t) [4, 12]: 32.3 ng·h/mL
- Cmax [4, 12]: 12.4 ng/mL
- Tmax [4, 13]: 30 min
- AUC(0-t) [4, 13]: 41.3 ng·h/mL
- Cmax [4, 13]: 25 ng/mL
- Tmax [4, 14]: 30 min
- AUC(0-t) [4, 14]: 79.5 ng·h/mL
- Cmax [4, 14]: 30.7 ng/mL
- Tmax ([4]; single oral solution dose, healthy male subjects): < 60 min
- Tmax ([4]; single oral solution formulation dose): 30 min
- Effects on EPO or VEGF from baseline to Day 7 compared to placebo [5]: no consistent or dose-related effects
- pKa [6]: 6.5
- Significant genes detected ([7]; Tier 1 association tests): HMOX1, CA9
- Significant genes detected ([7]; Tier 2 analysis): NDRG1, LCN2, BNIP3, TFF3, AKR1C3, BIRC3, TMEM45A and HILPDA
- Safety and tolerability [8]: safe and well tolerated
- Proportion of HIF-1α Positive Cells, Mean ([9]; 60 mg, Baseline): 6.3%
- Proportion of HIF-1α Positive Cells, Median ([9]; 60 mg, Baseline): 5.8%
- Proportion of HIF-1α Positive Cells, Mean ([9]; 60 mg, Day 8): 44.5%
- Proportion of HIF-1α Positive Cells, Median ([9]; 60 mg, Day 8): 46.5%
- Proportion of HIF-1α Positive Cells, CFB (change from baseline), Mean ([9]; 60 mg): 38.3%
- Proportion of HIF-1α Positive Cells, CFB (change from baseline), Median ([9]; 60 mg): 38.0%
- Proportion of HIF-1α Positive Cells, Mean ([9]; 120 mg, Baseline): 12.0%
- Proportion of HIF-1α Positive Cells, Median ([9]; 120 mg, Baseline): 6.3%
- Proportion of HIF-1α Positive Cells, Mean ([9]; 120 mg, Day 8): 44.1%
- Proportion of HIF-1α Positive Cells, Median ([9]; 120 mg, Day 8): 45.3%
- Proportion of HIF-1α Positive Cells, CFB (change from baseline), Mean ([9]; 120 mg): 32.1%
- Proportion of HIF-1α Positive Cells, CFB (change from baseline), Median ([9]; 120 mg): 28.5%
- Proportion of HIF-1α Positive Cells, Mean [9, 15]: 9.1%
- Proportion of HIF-1α Positive Cells, Median [9, 15]: 5.8%
- Proportion of HIF-1α Positive Cells, Mean [9, 16]: 44.3%
- Proportion of HIF-1α Positive Cells, Median [9, 16]: 45.3%
- Proportion of HIF-1α Positive Cells, CFB (change from baseline), Mean ([9]; Pooled (60 mg and 120 mg)): 35.2%
- Proportion of HIF-1α Positive Cells, CFB (change from baseline), Median ([9]; Pooled (60 mg and 120 mg)): 29.0%
- Increase from baseline to Day 8 in proportion of HIF-1α positive cells [mean±SD] ([9]; combined group (Pooled; 120 mg and 60 mg cohorts)): 35.2+28.8

From patent publication US20220175766A1, “COMPOSITIONS AND METHODS OF TREATMENT” (GB004, Inc., priority 2019, published 2022)
